Laboratory results as given in ChEMBL document CHEMBL3421590, “Pancreatic lipase inhibitory constituents from Morus alba leaves and optimization for extraction conditions” (Bioorg Med Chem Lett, 2015).

Legend:
[1] = biological target: T1, Pancreatic triacylglycerol lipase (Sus scrofa) (UniProt P00591); assay: Inhibition of porcine pancreatic lipase using p-nitrophenylbutyrate as substrate assessed as formation of p-nitrophenol at 100 uM preincubated for 15 mins followed by substrate addition measured after 15 mins relative to control
T1 sequence (whole entry): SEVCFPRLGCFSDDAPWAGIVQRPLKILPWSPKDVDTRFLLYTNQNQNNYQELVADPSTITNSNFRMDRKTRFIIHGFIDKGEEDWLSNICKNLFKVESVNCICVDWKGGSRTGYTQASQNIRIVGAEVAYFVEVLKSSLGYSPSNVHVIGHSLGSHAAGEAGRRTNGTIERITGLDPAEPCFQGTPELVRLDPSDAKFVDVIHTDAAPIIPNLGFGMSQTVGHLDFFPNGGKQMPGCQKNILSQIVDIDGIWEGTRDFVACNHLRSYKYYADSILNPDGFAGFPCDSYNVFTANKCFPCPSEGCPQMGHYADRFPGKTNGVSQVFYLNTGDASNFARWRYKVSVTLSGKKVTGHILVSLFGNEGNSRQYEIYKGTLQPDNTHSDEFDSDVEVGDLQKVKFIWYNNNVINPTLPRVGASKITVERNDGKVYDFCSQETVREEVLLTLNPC

[2] = biological target: T2, Pancreatic triacylglycerol lipase (Sus scrofa, UniProt P00591); assay: Inhibition of porcine pancreatic lipase using p-nitrophenylbutyrate as substrate assessed as formation of p-nitrophenol preincubated for 15 mins followed by substrate addition measured after 15 mins
T2 sequence (P00591 whole entry): T1 sequence (whole entry)

| Structure (SMILES) | inhibition [1] | IC50 [2] |
| --- | --- | --- |
| Oc1cc(O)cc(-c2cc3cc4ccoc4cc3o2)c1 | 31.7% | > 70 µM |
| COc1ccc(-c2oc3cc(O)cc(O)c3c(=O)c2OC2O[C@H](CO)[C@@H](O)[C@H](O)[C@H]2O)cc1 (some centres undefined) | 12.1% | > 70 µM |
| O=C1CC(c2ccc(O)cc2O)Oc2cc(O)ccc21 (centres undefined) | 69.6% | 56.4 µM |
| Oc1cc(O)cc(-c2cc3ccc(O)c(O)c3o2)c1 | 55.9% | 63 µM |
| Oc1cc(O)cc(-c2cc3cc(O)c(O)cc3o2)c1 | 59.1% | 64.8 µM |
| CC1(C)C=Cc2cc3cc(-c4cc(O)cc(O)c4)oc3cc2O1 | 67.9% | 29.2 µM |
| O=c1c(O)c(-c2ccc(O)c(O)c2)oc2cc(O)cc(O)c12 | 36.3% | – |
| CC(C)=CCC/C(C)=C/Cc1c(O)cc(O)cc1-c1cc2ccc(O)cc2o1 [ALBAFURAN A] | 45.4% | > 70 µM |
| O=c1c(O[C@@H]2O[C@H](CO)[C@@H](O)[C@H](O)[C@H]2O)c(-c2ccc(O)cc2)oc2cc(O)cc(O)c12 [ASTRAGALIN] | 10.8% | > 70 µM |
| O=c1c(O[C@@H]2O[C@H](CO)[C@@H](O)[C@H](O)[C@H]2O)c(-c2ccc(O)c(O)c2)oc2cc(O)cc(O)c12 [ISOQUERCETIN] | 12.6% | > 70 µM |
| COc1cc(-c2oc3cc(O)cc(O)c3c(=O)c2O)ccc1O [ISORHAMNETIN] | 32.4% | > 70 µM |
| O=c1c(O)c(-c2ccc(O)cc2)oc2cc(O)cc(O)c12 [KAEMPFEROL] | 50.3% | > 70 µM |
| CC(C)=CCc1c(-c2ccc(O)cc2O)oc2c(CC=C(C)C)c(O)cc(O)c2c1=O [KUWANON C] | 72.5% | 18.6 µM |
| CC(C)=CCc1c(O)ccc(C(=O)/C=C/c2ccc(O)cc2O)c1O [MORACHALCONE A] | 73% | 6.2 µM |
| CC(C)=CCc1c(O)cc(-c2cc3ccc(O)cc3o2)cc1O [MORACIN C] | 64.8% | 32 µM |
| Oc1cc(O)cc(-c2cc3ccc(O)cc3o2)c1 [MORACIN M] | 21.5% | > 70 µM |
| CC(C)=CCc1cc2cc(-c3cc(O)cc(O)c3)oc2cc1O [MORACIN N] | 61.7% | 29.7 µM |
| O=c1cc(-c2ccc(O)cc2O)oc2cc(O)cc(O)c12 [NORARTOCARPETIN] | 45.3% | > 70 µM |
| Oc1cc(O)cc(/C=C/c2ccc(O)cc2O)c1 [OXYRESVERATROL] | 28.8% | > 70 µM |
| O=C1CC(c2ccc(O)cc2O)Oc2cc(O)cc(O)c21 (centres undefined) [STEPPOGENIN] | 4.4% | > 70 µM |
